From patent publication US9078838B2, “Cosmetic or dermatological compositions comprising a mixture of essential oils, and its uses thereof, particularly for the care of sensitive or sensitized skin” (LVMH Recherche, priority 2008, dated 2015) come the findings set out here.

No end group written: not given here.

In this experiment the test system is explants of human skin. Description: Release of histamine induced by CRH in explants of human skin (ex vivo cutaneous stress model, ELISA). The format is cell-based. The procedure: To evaluate the activity of the combination of the invention on the release of histamine, which is an allergy mediator, a cutaneous stress model is reproduced ex vivo by applying a solution of CRH in the survival medium of explants of human skin.
Three explants of skin with a diameter of 8 mm are prepared from healthy human skin originating from surgical removal.
They are placed in 24-well plates and left to stand in an appropriate medium (MCDB 153, insulin, CaCl2, gentamycin) for 24 hours.
CRH (from Neosystem) is dissolved at a concentration of 231 μM in phosphate buffer (PBS) (pH 7.2).
First of all a 5% by weight (50 mg/ml) solution is prepared for each of the essential oils, in ethanol for the helichrysum oil and in DMSO for the cannabis oil.
The 5% by weight solutions are subsequently diluted at the time of use to 1/1000th in the survival medium of the explants, to give the different treatment solutions.
The combination of cannabis and helichrysum essential oils is tested in the form of a treatment solution containing these two essential oils, each at a concentration of 0.005% by weight (50:50 ratio). Each essential oil is likewise tested on its own in the form of a 0.005% by weight treatment solution.
In each well the explant is at the surface of the survival medium. […]
Background: ELISA stands for enzyme-linked immunosorbent assay.

For “corticotropin-releasing hormone (SEEPPISLDLTFHLLREVLEMARAEQLAQQAHSNRKLMEII; not fully specified (C-terminus); ends and bridges not checked; UniProt P06850 154-194, looked up) [CRH, CRH (from Neosystem), stimulus of histamine release, positive control]”, the “Stimulation of the release of histamine by skin explants (in words)” value (CRH on skin explants maintained in survival mode) was “induces significant stimulation of the release of histamine”. Also, the Histamine (stimulated with CRH 7.7 μM for 2 hours, no essential oil pretreatment (positive control), solvent control 15.3 +/− 1.0) turned out to be 21.8 ± 1.4 ng/mL.
